Activity calls are given as the source filed them.
Columns and labels:
[1] = target: Glyceraldehyde-3-phosphate dehydrogenase (Homo sapiens, UniProt P04406)
[2] = target: T1, Alkaline phosphatase, tissue-nonspecific isozyme (Homo sapiens, UniProt P05186); assay: human TNAP enzyme inhibitors, SAR follow-up, biochemical, luminescent, dose response (AID 1056)
T1 sequence (P05186 whole entry): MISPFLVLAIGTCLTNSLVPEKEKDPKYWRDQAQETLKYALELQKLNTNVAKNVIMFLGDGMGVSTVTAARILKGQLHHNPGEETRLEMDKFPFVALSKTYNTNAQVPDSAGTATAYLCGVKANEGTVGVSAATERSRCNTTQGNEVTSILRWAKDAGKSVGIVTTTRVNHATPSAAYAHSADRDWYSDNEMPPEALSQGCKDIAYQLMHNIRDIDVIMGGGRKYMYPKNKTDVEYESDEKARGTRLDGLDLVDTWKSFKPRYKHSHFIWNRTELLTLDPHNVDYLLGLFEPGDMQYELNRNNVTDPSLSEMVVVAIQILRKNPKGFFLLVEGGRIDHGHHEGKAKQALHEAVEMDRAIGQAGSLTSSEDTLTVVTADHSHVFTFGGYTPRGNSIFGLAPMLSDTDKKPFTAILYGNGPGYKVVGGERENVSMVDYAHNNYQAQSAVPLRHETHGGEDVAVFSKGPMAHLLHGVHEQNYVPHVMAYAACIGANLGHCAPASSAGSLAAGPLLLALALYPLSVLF

Coagulation factor XII = target: T2, Coagulation factor XII (Homo sapiens, UniProt P00748); assay type: functional;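 also: activated factor XIIa alpha cleaving a fluorogenic AMC peptide substrate; inhibitor potency from loss of enzyme activity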
T2 sequence (P00748 whole entry): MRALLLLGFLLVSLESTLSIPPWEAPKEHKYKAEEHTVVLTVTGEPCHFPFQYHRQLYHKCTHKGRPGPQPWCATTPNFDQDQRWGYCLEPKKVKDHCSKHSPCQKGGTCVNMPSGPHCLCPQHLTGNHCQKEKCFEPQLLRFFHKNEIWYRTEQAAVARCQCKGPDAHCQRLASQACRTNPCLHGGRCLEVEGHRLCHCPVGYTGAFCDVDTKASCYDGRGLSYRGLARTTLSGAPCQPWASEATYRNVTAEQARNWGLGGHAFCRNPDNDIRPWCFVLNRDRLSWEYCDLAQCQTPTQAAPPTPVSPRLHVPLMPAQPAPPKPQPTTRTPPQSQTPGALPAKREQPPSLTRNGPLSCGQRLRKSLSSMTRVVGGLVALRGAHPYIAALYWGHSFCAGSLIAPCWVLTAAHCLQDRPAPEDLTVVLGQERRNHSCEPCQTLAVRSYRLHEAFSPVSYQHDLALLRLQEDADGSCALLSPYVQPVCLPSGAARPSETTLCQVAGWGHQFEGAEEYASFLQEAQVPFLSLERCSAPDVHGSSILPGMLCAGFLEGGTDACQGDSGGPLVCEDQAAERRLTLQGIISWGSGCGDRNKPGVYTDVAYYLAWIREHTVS

cells [3] = assay: cells
[4] = target: Voltage-dependent T-type calcium channel subunit alpha-1H (Homo sapiens, UniProt O95180); assay type: functional;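 also: channel activity triggered by adding a high calcium stimulation buffer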
Chain of Voltage-dependent T-type calcium channel subunit alpha-1H (O95180 whole entry): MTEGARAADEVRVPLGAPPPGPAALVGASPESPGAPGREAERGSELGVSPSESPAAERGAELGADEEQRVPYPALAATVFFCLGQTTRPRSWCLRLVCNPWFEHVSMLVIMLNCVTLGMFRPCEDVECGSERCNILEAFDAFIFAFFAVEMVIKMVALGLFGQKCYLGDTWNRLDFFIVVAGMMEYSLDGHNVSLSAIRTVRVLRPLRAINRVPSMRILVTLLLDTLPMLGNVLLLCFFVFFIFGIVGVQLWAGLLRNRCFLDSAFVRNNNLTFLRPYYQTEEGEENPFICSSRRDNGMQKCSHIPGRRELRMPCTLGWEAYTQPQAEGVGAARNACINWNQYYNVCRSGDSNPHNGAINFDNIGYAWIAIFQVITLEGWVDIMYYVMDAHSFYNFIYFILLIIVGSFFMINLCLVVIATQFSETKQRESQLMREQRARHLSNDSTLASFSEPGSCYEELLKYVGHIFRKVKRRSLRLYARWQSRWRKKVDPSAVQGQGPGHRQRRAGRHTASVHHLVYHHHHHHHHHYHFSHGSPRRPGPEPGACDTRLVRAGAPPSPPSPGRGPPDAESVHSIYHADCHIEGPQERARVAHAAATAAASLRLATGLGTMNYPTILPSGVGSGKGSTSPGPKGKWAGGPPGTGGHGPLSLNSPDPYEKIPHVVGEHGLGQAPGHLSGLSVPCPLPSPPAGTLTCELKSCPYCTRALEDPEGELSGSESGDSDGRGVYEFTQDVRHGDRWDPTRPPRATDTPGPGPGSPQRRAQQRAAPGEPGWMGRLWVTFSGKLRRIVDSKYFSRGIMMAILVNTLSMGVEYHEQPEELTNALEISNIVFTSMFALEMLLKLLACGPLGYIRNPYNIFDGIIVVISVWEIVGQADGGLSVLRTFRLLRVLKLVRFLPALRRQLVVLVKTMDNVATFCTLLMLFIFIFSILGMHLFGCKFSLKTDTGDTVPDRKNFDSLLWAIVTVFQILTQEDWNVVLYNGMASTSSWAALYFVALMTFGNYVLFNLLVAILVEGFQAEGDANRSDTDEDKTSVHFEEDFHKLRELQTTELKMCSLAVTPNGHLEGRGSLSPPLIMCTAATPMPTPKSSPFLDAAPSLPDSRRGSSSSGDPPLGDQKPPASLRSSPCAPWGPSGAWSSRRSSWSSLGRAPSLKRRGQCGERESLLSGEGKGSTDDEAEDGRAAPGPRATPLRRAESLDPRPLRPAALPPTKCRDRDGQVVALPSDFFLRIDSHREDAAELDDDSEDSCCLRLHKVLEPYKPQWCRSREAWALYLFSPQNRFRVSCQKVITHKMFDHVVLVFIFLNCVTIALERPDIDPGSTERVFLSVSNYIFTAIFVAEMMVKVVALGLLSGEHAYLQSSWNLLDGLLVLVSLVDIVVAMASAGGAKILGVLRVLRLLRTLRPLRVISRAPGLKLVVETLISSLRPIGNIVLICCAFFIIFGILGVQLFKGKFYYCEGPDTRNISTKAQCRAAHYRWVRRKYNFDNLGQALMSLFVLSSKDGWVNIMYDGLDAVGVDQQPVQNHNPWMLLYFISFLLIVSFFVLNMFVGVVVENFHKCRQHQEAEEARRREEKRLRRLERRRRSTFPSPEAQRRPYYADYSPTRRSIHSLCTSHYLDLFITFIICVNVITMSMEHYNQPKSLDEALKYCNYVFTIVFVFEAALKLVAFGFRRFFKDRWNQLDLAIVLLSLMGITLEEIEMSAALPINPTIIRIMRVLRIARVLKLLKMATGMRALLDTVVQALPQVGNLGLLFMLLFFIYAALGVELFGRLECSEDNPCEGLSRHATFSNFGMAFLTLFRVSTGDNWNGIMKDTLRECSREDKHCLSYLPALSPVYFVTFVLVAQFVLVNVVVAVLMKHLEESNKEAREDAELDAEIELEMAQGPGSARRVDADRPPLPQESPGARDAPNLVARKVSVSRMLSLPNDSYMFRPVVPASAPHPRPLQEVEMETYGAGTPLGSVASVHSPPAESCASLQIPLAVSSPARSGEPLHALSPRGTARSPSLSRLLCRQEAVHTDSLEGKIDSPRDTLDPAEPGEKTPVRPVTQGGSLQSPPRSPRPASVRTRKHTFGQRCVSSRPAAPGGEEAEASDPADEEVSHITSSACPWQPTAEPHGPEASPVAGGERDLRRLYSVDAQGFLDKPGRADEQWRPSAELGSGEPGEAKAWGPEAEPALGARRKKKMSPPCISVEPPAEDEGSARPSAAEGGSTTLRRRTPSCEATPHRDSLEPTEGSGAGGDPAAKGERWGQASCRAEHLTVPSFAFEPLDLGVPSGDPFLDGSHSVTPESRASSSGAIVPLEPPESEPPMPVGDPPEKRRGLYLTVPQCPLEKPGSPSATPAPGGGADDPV

[5] = HEp-2 cell cytotoxicity, dose response, cytotoxicity control for RSV inhibitor project, HTS (AID 2410); assay type: functional; conditions: human respiratory syncytial virus
cells [6] = assay type: functional
[7] = THP-1 cell cytotoxicity, dose response, cytotoxicity control for non-replicating M. tuberculosis project (AID 489025); assay type: functional
[8] = target: FAD-linked sulfhydryl oxidase ALR (Homo sapiens, UniProt P55789); assay: inhibitors of human ALR sulfhydryl oxidase, dose response, biochemical, H2O2 detection, luminescence, cherry-pick (AID 493248)
Chain of FAD-linked sulfhydryl oxidase ALR (P55789 whole entry): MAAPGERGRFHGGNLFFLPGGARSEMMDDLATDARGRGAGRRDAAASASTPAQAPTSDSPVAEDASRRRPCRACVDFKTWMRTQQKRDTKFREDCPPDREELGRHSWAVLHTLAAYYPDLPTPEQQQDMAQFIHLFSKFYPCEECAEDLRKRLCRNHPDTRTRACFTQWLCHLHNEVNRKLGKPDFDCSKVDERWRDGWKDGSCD

Cytochrome P450 2C9 = Cytochrome P450 2C9 (Homo sapiens, UniProt P11712)
Chain of Cytochrome P450 2C9 (P11712 whole entry): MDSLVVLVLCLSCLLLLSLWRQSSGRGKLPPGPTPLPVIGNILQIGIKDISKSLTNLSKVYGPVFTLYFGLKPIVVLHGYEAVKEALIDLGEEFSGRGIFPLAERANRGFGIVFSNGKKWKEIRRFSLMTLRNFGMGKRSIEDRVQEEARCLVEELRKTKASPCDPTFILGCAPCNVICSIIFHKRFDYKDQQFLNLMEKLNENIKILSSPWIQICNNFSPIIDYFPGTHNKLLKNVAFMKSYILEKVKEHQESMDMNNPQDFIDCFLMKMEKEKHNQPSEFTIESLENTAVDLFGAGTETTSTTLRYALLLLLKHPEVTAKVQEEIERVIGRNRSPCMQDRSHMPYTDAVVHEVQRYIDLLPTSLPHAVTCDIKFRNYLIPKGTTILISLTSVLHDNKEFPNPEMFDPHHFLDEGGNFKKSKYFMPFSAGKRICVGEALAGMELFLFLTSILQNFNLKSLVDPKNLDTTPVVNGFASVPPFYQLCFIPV

Nonstructural protein 1 = Nonstructural protein 1 (Influenza A virus, UniProt Q194T2); assay type: functional, Influenza A virus (A/California/07/2009(H1N1))
Chain of Nonstructural protein 1 (Q194T2 whole entry): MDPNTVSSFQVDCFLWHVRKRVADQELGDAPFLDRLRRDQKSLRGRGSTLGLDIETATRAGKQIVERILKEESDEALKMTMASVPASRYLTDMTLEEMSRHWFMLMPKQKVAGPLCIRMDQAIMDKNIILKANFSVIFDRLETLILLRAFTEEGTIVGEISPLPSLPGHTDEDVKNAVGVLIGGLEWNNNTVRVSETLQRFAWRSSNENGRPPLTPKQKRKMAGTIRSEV

cells [9] = assay type: functional, cell-based
cells [10] = assay type: functional, cell-based; remark: listed apart in the source
Hexokinase HKDC1 = target: T3, Hexokinase HKDC1 (Homo sapiens, UniProt Q2TB90); assay: HKDC1 hexokinase inhibitors, dose response, biochemical, W721R variant (AID 504729); assay type: functional
T3 sequence (Q2TB90 whole entry): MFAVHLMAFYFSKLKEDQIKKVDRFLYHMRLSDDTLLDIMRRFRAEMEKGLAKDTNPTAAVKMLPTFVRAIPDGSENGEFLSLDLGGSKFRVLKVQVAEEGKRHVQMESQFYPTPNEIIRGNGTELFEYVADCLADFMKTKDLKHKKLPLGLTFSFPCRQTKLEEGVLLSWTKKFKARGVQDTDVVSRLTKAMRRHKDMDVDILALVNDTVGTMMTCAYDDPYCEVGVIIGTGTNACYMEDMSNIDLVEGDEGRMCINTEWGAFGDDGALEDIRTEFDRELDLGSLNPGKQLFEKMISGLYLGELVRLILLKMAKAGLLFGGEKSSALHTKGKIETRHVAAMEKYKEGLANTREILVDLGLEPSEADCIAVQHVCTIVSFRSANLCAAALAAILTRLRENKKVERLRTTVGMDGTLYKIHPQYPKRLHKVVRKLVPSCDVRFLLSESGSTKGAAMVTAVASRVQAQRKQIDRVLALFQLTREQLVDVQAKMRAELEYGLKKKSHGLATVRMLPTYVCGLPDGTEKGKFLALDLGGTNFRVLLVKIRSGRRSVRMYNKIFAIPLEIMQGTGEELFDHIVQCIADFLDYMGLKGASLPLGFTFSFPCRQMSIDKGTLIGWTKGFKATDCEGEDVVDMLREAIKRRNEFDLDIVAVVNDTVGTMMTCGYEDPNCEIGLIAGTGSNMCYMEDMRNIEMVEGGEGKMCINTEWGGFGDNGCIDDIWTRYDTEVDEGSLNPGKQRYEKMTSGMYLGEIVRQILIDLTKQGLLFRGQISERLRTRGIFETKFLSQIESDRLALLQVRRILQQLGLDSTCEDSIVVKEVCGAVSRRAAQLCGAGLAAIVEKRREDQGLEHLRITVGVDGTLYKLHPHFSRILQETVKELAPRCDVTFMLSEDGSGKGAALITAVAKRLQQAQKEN

Cytochrome P450 2D6 = Cytochrome P450 2D6 (Homo sapiens, UniProt P10635);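 also: CYP2D6 member of a cytochrome P450 panel assay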
Chain of Cytochrome P450 2D6 (P10635 whole entry): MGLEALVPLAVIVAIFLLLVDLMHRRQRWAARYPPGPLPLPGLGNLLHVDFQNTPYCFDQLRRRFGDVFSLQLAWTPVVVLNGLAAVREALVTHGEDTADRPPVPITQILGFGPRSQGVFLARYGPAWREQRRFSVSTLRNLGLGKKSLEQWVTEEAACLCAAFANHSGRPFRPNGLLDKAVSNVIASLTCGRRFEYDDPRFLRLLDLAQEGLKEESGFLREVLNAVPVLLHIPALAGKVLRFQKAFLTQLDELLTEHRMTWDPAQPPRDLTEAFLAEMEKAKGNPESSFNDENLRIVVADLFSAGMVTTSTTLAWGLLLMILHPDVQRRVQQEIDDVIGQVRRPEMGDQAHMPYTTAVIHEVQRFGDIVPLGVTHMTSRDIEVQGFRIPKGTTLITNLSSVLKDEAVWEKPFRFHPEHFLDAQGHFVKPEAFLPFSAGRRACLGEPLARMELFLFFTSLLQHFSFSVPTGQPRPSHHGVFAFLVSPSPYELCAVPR

[11] = target: T4, Calpain-2 catalytic subunit (Sus scrofa, UniProt P43367); assay: pig calpain II inhibitor potency, dose response, biochemical, fluorogenic peptide substrate (AID 1420); assay type: functional
T4 sequence (P43367 whole entry): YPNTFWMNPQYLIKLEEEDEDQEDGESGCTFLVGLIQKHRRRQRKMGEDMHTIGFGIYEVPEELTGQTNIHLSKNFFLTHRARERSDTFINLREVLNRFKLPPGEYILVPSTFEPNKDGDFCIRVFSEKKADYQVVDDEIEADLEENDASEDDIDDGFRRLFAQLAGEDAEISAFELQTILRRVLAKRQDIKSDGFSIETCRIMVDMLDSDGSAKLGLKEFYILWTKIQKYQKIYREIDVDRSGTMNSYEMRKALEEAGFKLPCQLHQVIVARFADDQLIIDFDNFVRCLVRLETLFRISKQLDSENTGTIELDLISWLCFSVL

Streptokinase A = target: T5, Streptokinase A (Streptococcus pyogenes serotype M1, UniProt P10520); assay: S. pyogenes streptokinase expression inhibitors, potency, dose response, plasminogen activation absorbance, OD405 (AID 1914); assay type: functional, Streptococcus pyogenes M1 GAS;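 also: secreted streptokinase activity via plasminogen activation per viability signal from cell pellet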
T5 sequence (P10520 whole entry): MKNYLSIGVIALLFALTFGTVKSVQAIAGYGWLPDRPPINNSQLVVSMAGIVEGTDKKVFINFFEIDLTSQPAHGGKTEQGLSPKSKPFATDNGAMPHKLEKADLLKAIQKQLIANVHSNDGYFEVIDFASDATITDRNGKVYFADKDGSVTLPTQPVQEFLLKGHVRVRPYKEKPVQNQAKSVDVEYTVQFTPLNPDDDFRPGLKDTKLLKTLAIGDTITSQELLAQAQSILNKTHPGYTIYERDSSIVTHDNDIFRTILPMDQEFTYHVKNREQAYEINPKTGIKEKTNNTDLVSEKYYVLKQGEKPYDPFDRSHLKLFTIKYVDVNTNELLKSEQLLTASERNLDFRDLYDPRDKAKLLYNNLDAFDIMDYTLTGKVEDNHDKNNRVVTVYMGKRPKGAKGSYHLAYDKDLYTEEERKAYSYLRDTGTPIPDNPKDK

[12] = target: T6, Ubiquitin-conjugating enzyme E2 N (Homo sapiens, UniProt P61088); assay type: functional
T6 sequence (P61088 whole entry): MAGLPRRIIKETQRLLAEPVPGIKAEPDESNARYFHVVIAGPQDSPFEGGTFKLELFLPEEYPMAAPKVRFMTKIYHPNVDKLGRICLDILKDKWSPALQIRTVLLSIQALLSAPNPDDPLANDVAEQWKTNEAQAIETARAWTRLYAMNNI

Bcl-2-related protein A1 = target: T7, Bcl-2-related protein A1 (Mus musculus, UniProt Q07440); assay type: functional;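 also: confirmatory dose–response counterscreen on Bfl-1, used to check hits from a UBC13 polyubiquitin inhibitor campaign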
T7 sequence (Q07440 whole entry): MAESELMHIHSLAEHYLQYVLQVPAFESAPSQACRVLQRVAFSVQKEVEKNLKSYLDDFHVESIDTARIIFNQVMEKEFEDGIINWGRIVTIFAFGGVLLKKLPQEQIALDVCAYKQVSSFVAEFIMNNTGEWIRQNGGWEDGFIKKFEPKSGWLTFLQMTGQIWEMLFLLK

[13] = target: T6, Ubiquitin-conjugating enzyme E2 N; assay type: functional; remark: listed apart in the source
[14] = system: Streptococcus sp. 'group A'; assay: growth inhibition of control SK(-) GAS strain, dose response, counter-screen for streptokinase expression inhibitor project, luminescence, kanamycin, BacTiterGlo, confirmation (AID 1900); assay type: functional, organism-based
Streptococcus = assay: Group A Streptococcus viability loss, dose response, counter-screen for streptokinase expression inhibitor project, luminescence, BacTiterGlo (AID 1915); assay type: functional, organism-based;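 also: potency for reduction of bacterial viability or growth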

Chain of Glyceraldehyde-3-phosphate dehydrogenase (P04406 whole entry): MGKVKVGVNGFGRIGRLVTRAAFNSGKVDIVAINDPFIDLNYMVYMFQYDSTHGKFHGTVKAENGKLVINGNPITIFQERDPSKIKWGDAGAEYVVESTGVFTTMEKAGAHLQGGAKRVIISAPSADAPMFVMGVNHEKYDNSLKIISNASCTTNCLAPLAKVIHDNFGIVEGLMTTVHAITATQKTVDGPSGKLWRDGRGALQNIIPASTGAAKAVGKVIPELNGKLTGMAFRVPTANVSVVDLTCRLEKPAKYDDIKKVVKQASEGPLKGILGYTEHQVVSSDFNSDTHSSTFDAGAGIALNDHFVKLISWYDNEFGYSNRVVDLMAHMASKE

O=S(=O)(Nc1cccnc1)c1cc(Cl)cc(Cl)c1O
IC50 [1]: > 100 µM (not active) | IC50 [2]: > 100 µM (inactive)

O=C(CN(Cc1cccs1)C(=O)CCC(=O)Nc1nccs1)NCc1ccccc1
IC50 (Coagulation factor XII): > 50 µM (inactive)

N#C/C(=N\Nc1ccccc1)C(N)=S
IC50 (Coagulation factor XII): > 50 µM (inactive)

COc1cccc(C(=O)N(Cc2nc(-c3cccc(C)c3)no2)C(C)C)c1OC
IC50 (cells [3]): 4.69 µM (active) | EC50 [4]: 12.7 µM (active) | CC50 [5]: 30.6 µM (active)

Cc1ccc(-c2nc3ccccn3c2Nc2ccccc2)o1
IC50 (cells [6]): 19.7 µM (active) | CC50 [7]: > 40 µM (active) | AC50 [8]: 0.235 µM (active)

c1cncc(-c2cncnc2)c1
IC50 [1]: > 100 µM (not active) | IC50 [2]: > 100 µM (inactive)

COc1ccc(C(=O)N/N=C/c2cccc3cccnc23)cc1
AC50 (Cytochrome P450 2C9): inconclusive | IC50 (Nonstructural protein 1): 5.8 µM (active) | IC50 (cells [6]): 3.44 µM (active) | EC50 (cells [9]): 15.5 µM (active) | CC50 [7]: 14.7 µM (active) | EC50 (cells [10]): > 350 µM (not active)

O=C(O)c1ccc(/N=C/c2c(O)ccc3ccccc23)cc1
IC50 (Hexokinase HKDC1): 38.1 µM (inactive)

COc1ccc(NC(=O)CSc2n[nH]c(-c3ccccn3)n2)cc1
IC50 (Nonstructural protein 1): 4.25 µM (active)

O=C(Cc1ccccc1)NC(NC(=S)Nc1cc(Cl)ccc1Cl)C(Cl)(Cl)Cl (configuration not stated)
IC50 (Coagulation factor XII): > 50 µM (inactive) | AC50 (Cytochrome P450 2D6): 3.16 µM (inconclusive) | IC50 [11]: > 50 µM (not active)

CCc1nc2c(c(=O)c3ccccc3n2C)c(=O)n1-c1ccc(F)cc1
IC50 (Hexokinase HKDC1): 7.9 µM (active)

Cc1ccc(NC(=O)CSCC(N)=O)cc1C
IC50 (Coagulation factor XII): > 50 µM (inactive)

O=C(CSc1nnc(CCCN2C(=O)c3cccc4cccc(c34)C2=O)n1-c1ccccc1)N1CCCCC1
IC50 (Hexokinase HKDC1): 11.4 µM (active)

CC1CC(C)(C)n2c(O)c(/N=N/C(=N)S)c3cccc1c32 (configuration not stated)
EC50 (Streptokinase A): > 150 µM (not active) | IC50 [12]: 4.95 µM (active) | IC50 (Bcl-2-related protein A1): > 20 µM (inactive) | IC50 [13]: 6.33 µM (active) | EC50 [14]: 9.25 µM (active) | EC50 (Streptococcus): > 150 µM (not active)
